In PMC4948680 (European journal of pharmaceutical sciences : official …, 2016):

Experiments:
[1] = system: Crl:NMRI (SPF) female mice; assay: Acute intravenous toxicity of CP04 in mice; format: in vivo; settings: 178.5 μg/kg body weight iv
Text: For acute intravenous toxicity studies Crl:NMRI (SPF) female mice provided by Charles River Laboratories (Germany) of 7–9 weeks of age and a body weight of 26–33 g were used. For extended acute single dose toxicity study in rats, 45 female and 45 male Wistar Hannover RccHan™ rats were used purchased from Harlan Laboratories, B.V. (The Netherlands). Animals were […] of age and the body weights were 195–235 g for males and 164–199 g for females. For in vivo stability tests and biodistribution/dosimetry studies healthy male Swiss albino mice from NCSR “Demokritos” Animal House were used, of 8–10 weeks of age and a body weight of 20–25 g. […]
The CP04 precursor was dissolved in phosphate buffered saline (PBS pH 7.4) and was administered at a dose of 178.5 μg/kg body weight and a dose volume of 5 mL/kg body weight into the caudal vein of two groups of three mice (Acute Intravenous Toxicity Study in Mice, Harlan Laboratories Study #D04314). […] Mortality, viability and clinical signs were recorded. […] Mortality/viability was recorded within the first 30 min and approximately 1, 2, 3 and 5 h after administration on test day 1 (with the clinical signs) and twice daily during days 2–15. Body weights were recorded on test day 1 (prior to administration) and on test days 8 and 15. […]

[2] = system: Wistar Hannover RccHan rats; assay: Extended acute single dose intravenous (bolus) toxicity study in rats; format: in vivo
Text: For acute intravenous toxicity studies Crl:NMRI (SPF) female mice provided by Charles River Laboratories (Germany) of 7–9 weeks of age and a body weight of 26–33 g were used. For extended acute single dose toxicity study in rats, 45 female and 45 male Wistar Hannover RccHan™ rats were used purchased from Harlan Laboratories, B.V. (The Netherlands). Animals were […] of age and the body weights were 195–235 g for males and 164–199 g for females. For in vivo stability tests and biodistribution/dosimetry studies healthy male Swiss albino mice from NCSR “Demokritos” Animal House were used, of 8–10 weeks of age and a body weight of 20–25 g. For the CCK2R-expressing tumour model, male SCID mice from NCSR “Demokritos” Animal House were used, of 6 weeks of age on arrival day and a body weight of 20 ± 2 g.
The study was designed according to the microdosing concept as described in ICH guideline M3 (R2) (“Note for guidance on non-clinical safety studies for the conduct of human clinical trials and marketing authorization for pharmaceuticals” (CPMP/ICH/286/95)). In brief, 90 rats were distributed into three dose groups, each containing fifteen animals per sex (Table 1). The animals from Group 1 received only PBS, serving as controls, while groups II and III received the CP04 solution by single intravenous (bolus) injection at a low (89 μg/kg body weight: Group 2) and a high dose (890 μg/kg body weight: Group 3). A 24-h observation period followed (Allocation A), except for five animals per sex from each group for which treatment was followed by an additional 14-day treatment-free recovery period (Allocation B).
At day 2 blood samples were withdrawn from Allocation-A animals for haematology, clinical biochemistry and samples for urinary analyses were collected. These animals were necropsied on the same day and histological examinations were performed on an extended set of organs (adrenal glands, kidneys, liver, pancreas, sternum (including bone marrow), small intestine, stomach, thyroid/parathyroid glands and gross lesions). The animals from Allocation-B remained untreated for the following 14 days, but on day 15 underwent the same procedure described above (Extended Acute Intravenous (Bolus) Toxicity Study in Rats, Harlan Study #S47364).

CCK2R = system: CCK2R; parameters: method as in Aloj et al., 2011; Kolenc Peitl et al., 2015; settings: ref Aloj et al., 2011; Kolenc Peitl et al., 2015; cited from earlier work
[3] = parameters: species or system mice
Protocol: Clearance kinetics in each organ was determined by exponential curve fitting. The time-integrated activity concentration (TIAC) was obtained by integration of this exponential curve folded with the decay curve of ^111In and ^177Lu.Mouse dosimetry was calculated for both ^177Lu and ^111In using the TIAC and the 25 g RADAR mouse absorbed dose rates per unit activity S for each source and target organ combination ([Keenan et al., 2010]; [Konijnenberg et al., 2014]).

| SMILES | macroscopic findings at necropsy ([1]; female mice) | survival and systemic signs of toxicity ([1]; two groups of three female mice, 14 days observation) | maximum recommended starting dose (MRSD) for a first-in-human clinical trial ([2]; HED with safety factor of 10) [µg/kg] | human equivalent dose (HED) ([2]; NOAEL × rat km/human km = 89 μg/kg × 6/37) [µg/kg] | reticulocyte count ([2]; male rats, 14 days after single bolus 890 μg/kg body weight) | mean food consumption and body weight gain ([2]; rats, single bolus 890 μg/kg body weight) | NOAEL initially established, based on pathological examination ([2]; rats, single intravenous bolus) [μg/kg body weight] | no-observed-adverse-effect-level (NOAEL) ([2]; rats, single intravenous bolus, eventually set value) [μg/kg body weight] | survival and clinical signs ([2]; rats, single iv bolus 89 or 890 μg/kg, 24-h study period) | CCK2R-affinity, IC50 (CCK2R) | Absorbed dose per injected activity, Bone [3] [mGy/MBq] | Absorbed dose per injected activity, Kidneys [3] [mGy/MBq] | Absorbed dose per injected activity, Large intestine [3] [mGy/MBq] | Absorbed dose per injected activity, Liver [3] [mGy/MBq] | Absorbed dose per injected activity, Lungs [3] [mGy/MBq] | Absorbed dose per injected activity, Pancreas [3] [mGy/MBq] | Absorbed dose per injected activity, Small intestine [3] [mGy/MBq] | Absorbed dose per injected activity, Spleen [3] [mGy/MBq] | Absorbed dose per injected activity, Stomach wall [3] [mGy/MBq] | Absorbed dose per injected activity, Total body [3] [mGy/MBq] |
| --- | --- | --- | --- | --- | --- | --- | --- | --- | --- | --- | --- | --- | --- | --- | --- | --- | --- | --- | --- | --- |
| CSCC[C@H](NC(=O)[C@H](Cc1c[nH]c2ccccc12)NC(=O)CNC(=O)[C@H](Cc1ccc(O)cc1)NC(=O)[C@H](C)NC(=O)[C@@H](CCC(=O)O)NC(=O)[C@@H](CCC(=O)O)NC(=O)[C@@H](CCC(=O)O)NC(=O)[C@@H](CCC(=O)O)NC(=O)[C@@H](CCC(=O)O)NC(=O)[C@@H](CCC(=O)O)NC(=O)CN1CCN(CC(=O)O)CCN(CC(=O)O)CCN(CC(=O)O)CC1)C(=O)N[C@@H](CC(=O)O)C(=O)N[C@@H](Cc1ccccc1)C(N)=O [CP04, DOTA-(DGlu)6-Ala-Tyr-Gly-Trp-Met-Asp-Phe-NH2] | No macroscopic findings | All animals survived until the end of the study with no systemic signs of toxicity evident | 1.4 | 14.4 | marked decrease | moderate decrease | 890 | 89 | All animals survived the 24-h study period with no clinical signs being recorded | lower nM range |  |  |  |  |  |  |  |  |  |  |
| CSCC[C@H](NC(=O)[C@H](Cc1c[nH]c2ccccc12)NC(=O)CNC(=O)[C@H](Cc1ccc(O)cc1)NC(=O)[C@H](C)NC(=O)[C@@H](CCC(=O)O)NC(=O)[C@@H](CCC(=O)O)NC(=O)[C@@H](CCC(=O)O)NC(=O)[C@@H](CCC(=O)O)NC(=O)[C@@H](CCC(=O)O)NC(=O)[C@@H](CCC(=O)O)NC(=O)CN1CCN(CC(=O)O)CCN(CC(=O)O)CCN(CC(=O)O)CC1)C(=O)N[C@@H](CC(=O)O)C(=O)N[C@@H](Cc1ccccc1)C(N)=O [^177Lu-CP04, metal not drawn] |  |  |  |  |  |  |  |  |  |  | 51 | 400 | 36 | 7 | 12 | 16 | 36 | 9 | 86 | 19 |
